{"source": "patent US7375246B2", "about": "“Sulfhydral containing compounds and methods of using the same” (Regenesis Bioremediation Products Inc., priority 2003, dated 2008)", "key": {"[1]": {"test": "Example D: two-flask liquid/soil system with chromated copper arsenate, chromium", "protocol": "(§1) A system which had two connected 250 ml flasks, one with liquid and soil and the other with a reservoir of liquid, was used. The liquid flowed between the 2 flasks. Samples were taken from the flask without the soil to determine the amount of Cu, As and Cr present in the aqueous phase. The liquid in the flask without soil was sampled periodically and the Cu, Cr and As content measured by Atomic Absorption Spectroscopy. A unimolar ratio of copper chromate and copper arsenate was used as being representative of chromated copper arsenate. The level of contamination was selected so that the As component was about 30 mg/L. After the system was set up the As component was determined to be 28.3 mg/L. The Cu and Cr were approximately 25 mg/L and 15.5 mg/L, respectively.\n(§2) Ferrous cysteinate and sorbitol tricysteinate were both used in this system."}, "[2]": {"test": "Example C: reduction of As in arsenate solution in a flask, atomic absorption", "protocol": "10.02 grams of ferrous cysteinate synthesized as in 1.4 were added to a 250 ml. flask which contained 150 ml of 32 ppm of As initially added as arsenic trioxide. The 32-ppm solution of As was prepared by using 0.08 grams of arsenic trioxide to which 3.0 grams of concentrated hydrochloric acid was added. This prepared the soluble arsenate. The solution was heated and diluted to one liter with distilled water. The As concentration was measured over time using atomic absorption."}, "[3]": {"test": "Example D: two-flask liquid/soil system with chromated copper arsenate, copper", "protocol": "as §1, §2"}, "[4]": {"test": "Example E: Aquifer Simulation Vessel (ASV), chromated copper arsenate, chromium", "settings": "for Chromium concentration in aqueous phase / Cr concentration: initial 15", "protocol": "(§3) A tube 6 foot long and 6 inches in diameter was packed with soil. These tubes simulate the flow in an aquifer below ground and are referred to as Aquifer Simulation Vessels (ASV). The ASV has sample ports along the bottom at every 6-inch interval to allow sampling as water flows through the tube. Contaminated water is allowed to flow through the tube. As the water flows through the tube, the water within the space pockets of the soil is tested and when the soil with the tube is fully contaminated the flow was stopped. The soil pockets (pores) were full of contaminants from the water. At that point either ferrous cysteinate or sorbitol hexacysteinate was injected just ahead of the first port with no flow in the system.\n(§4) A separate tube was used for each of the two materials tested.\n(§5) Initially the soil pockets (pores) were filled with this solution as described. Either ferrous cysteinate or sorbitol hexacysteinate was injected into the soil containing tube. The concentration of contaminants at each sample port was measured over a 30 day period. The system was then flushed with fresh water to determine if the removed metals are “redistributed” or “redissolved” in the water (i.e. so called “rebound”). This measure determined the ability of the compounds to permanently remove the contaminants."}, "[5]": {"test": "Example D: two-flask liquid/soil system with chromated copper arsenate, arsenic", "protocol": "as §1, §2"}, "[6]": {"test": "Example E: Aquifer Simulation Vessel (ASV), chromated copper arsenate, copper", "settings": "for Copper concentration in aqueous phase: initial 4.2", "protocol": "as §3, §4, §5"}, "[7]": {"test": "Example E: Aquifer Simulation Vessel (ASV), chromated copper arsenate, arsenic", "settings": "for Arsenic concentration in aqueous phase: initial 25.7", "protocol": "as §3, §4, §5"}}, "data": [{"substance": "ferrous cysteinate [FeC]", "values": [{"measurement": "remediation of chromium in combined solution", "setting": "[1]", "result": "remediated"}, {"measurement": "time in which the concentration of As was reduced by half", "setting": "[2]; 10.02 grams in 150 ml of 32 ppm As", "result": "less than 45 hours"}, {"measurement": "concentration of As after treatment", "setting": "[2]; from 32 ppm, in less than 45 hours", "result": "less than 15 ppm"}, {"measurement": "remediation of copper in combined solution", "setting": "[3]", "result": "remediated"}, {"measurement": "remediation of Cr in ASV", "setting": "[4]", "result": "effective remediation"}, {"measurement": "Chromium concentration in aqueous phase", "setting": "[4]; Port 1, Day 8", "result": 5.8, "unit": "mg/L"}, {"measurement": "Chromium concentration in aqueous phase", "setting": "[4]; Port 1, Day 13", "result": 3.4, "unit": "mg/L"}, {"measurement": "Chromium concentration in aqueous phase", "setting": "[4]; Port 1, Day 16", "result": 1.4, "unit": "mg/L"}, {"measurement": "Chromium concentration in aqueous phase", "setting": "[4]; Port 1, Day 20", "result": 0.7, "unit": "mg/L"}, {"measurement": "Chromium concentration in aqueous phase", "setting": "[4]; Port 1, Day 22", "result": 1.1, "unit": "mg/L"}, {"measurement": "Chromium concentration in aqueous phase", "setting": "[4]; Port 1, Day 27", "result": 1.0, "unit": "mg/L"}, {"measurement": "Chromium concentration in aqueous phase", "setting": "[4]; Port 5, Day 8", "result": 4.8, "unit": "mg/L"}, {"measurement": "Chromium concentration in aqueous phase", "setting": "[4]; Port 5, Day 13", "result": 1.3, "unit": "mg/L"}, {"measurement": "Chromium concentration in aqueous phase", "setting": "[4]; Port 5, Day 16", "result": 0.9, "unit": "mg/L"}, {"measurement": "Chromium concentration in aqueous phase", "setting": "[4]; Port 5, Day 20", "result": 0.6, "unit": "mg/L"}, {"measurement": "Chromium concentration in aqueous phase", "setting": "[4]; Port 5, Day 22", "result": 1.0, "unit": "mg/L"}, {"measurement": "Chromium concentration in aqueous phase", "setting": "[4]; Port 5, Day 27", "result": 0.9, "unit": "mg/L"}, {"measurement": "Chromium concentration in aqueous phase", "setting": "[4]; Port 10, Day 8", "result": 5.2, "unit": "mg/L"}, {"measurement": "Chromium concentration in aqueous phase", "setting": "[4]; Port 10, Day 13", "result": 0.8, "unit": "mg/L"}, {"measurement": "Chromium concentration in aqueous phase", "setting": "[4]; Port 10, Day 16", "result": 0.6, "unit": "mg/L"}, {"measurement": "Chromium concentration in aqueous phase", "setting": "[4]; Port 10, Day 20", "result": 0.5, "unit": "mg/L"}, {"measurement": "Chromium concentration in aqueous phase", "setting": "[4]; Port 10, Day 22", "result": 0.9, "unit": "mg/L"}, {"measurement": "Chromium concentration in aqueous phase", "setting": "[4]; Port 10, Day 27", "result": 0.7, "unit": "mg/L"}, {"measurement": "Cr concentration", "setting": "[4]; port 1, day 30", "result": 0.7, "unit": "mg/L"}, {"measurement": "Cr concentration", "setting": "[4]; port 5, day 30", "result": 0.4, "unit": "mg/L"}, {"measurement": "Cr concentration", "setting": "[4]; port 10, day 30", "result": 0.4, "unit": "mg/L"}, {"measurement": "remediation of arsenic in combined solution", "setting": "[5]", "result": "remediated"}, {"measurement": "remediation of Cu in ASV", "setting": "[6]", "result": "effective remediation"}, {"measurement": "Copper concentration in aqueous phase", "setting": "[6]; Port 1, Day 5", "result": 0.3, "unit": "mg/L"}, {"measurement": "Copper concentration in aqueous phase", "setting": "[6]; Port 1, Day 8", "result": 0.2, "unit": "mg/L"}, {"measurement": "Copper concentration in aqueous phase", "setting": "[6]; Port 1, Day 13", "result": 0.1, "unit": "mg/L"}, {"measurement": "Copper concentration in aqueous phase", "setting": "[6]; Port 1, Day 16", "result": 0.1, "unit": "mg/L"}, {"measurement": "Copper concentration in aqueous phase", "setting": "[6]; Port 1, Day 20", "result": 0.0, "unit": "mg/L"}, {"measurement": "Copper concentration in aqueous phase", "setting": "[6]; Port 1, Day 22", "result": 0.1, "unit": "mg/L"}, {"measurement": "Copper concentration in aqueous phase", "setting": "[6]; Port 1, Day 27", "result": 0.0, "unit": "mg/L"}, {"measurement": "Copper concentration in aqueous phase", "setting": "[6]; Port 5, Day 5", "result": 0.3, "unit": "mg/L"}, {"measurement": "Copper concentration in aqueous phase", "setting": "[6]; Port 5, Day 8", "result": 0.2, "unit": "mg/L"}, {"measurement": "Copper concentration in aqueous phase", "setting": "[6]; Port 5, Day 13", "result": 0.1, "unit": "mg/L"}, {"measurement": "Copper concentration in aqueous phase", "setting": "[6]; Port 5, Day 16", "result": 0.0, "unit": "mg/L"}, {"measurement": "Copper concentration in aqueous phase", "setting": "[6]; Port 5, Day 20", "result": 0.0, "unit": "mg/L"}, {"measurement": "Copper concentration in aqueous phase", "setting": "[6]; Port 5, Day 22", "result": 0.0, "unit": "mg/L"}, {"measurement": "Copper concentration in aqueous phase", "setting": "[6]; Port 5, Day 27", "result": 0.0, "unit": "mg/L"}, {"measurement": "Copper concentration in aqueous phase", "setting": "[6]; Port 10, Day 5", "result": 0.1, "unit": "mg/L"}, {"measurement": "Copper concentration in aqueous phase", "setting": "[6]; Port 10, Day 8", "result": 0.1, "unit": "mg/L"}, {"measurement": "Copper concentration in aqueous phase", "setting": "[6]; Port 10, Day 13", "result": 0.0, "unit": "mg/L"}, {"measurement": "Copper concentration in aqueous phase", "setting": "[6]; Port 10, Day 16", "result": 0.0, "unit": "mg/L"}, {"measurement": "Copper concentration in aqueous phase", "setting": "[6]; Port 10, Day 20", "result": 0.0, "unit": "mg/L"}, {"measurement": "Copper concentration in aqueous phase", "setting": "[6]; Port 10, Day 22", "result": 0.0, "unit": "mg/L"}, {"measurement": "Copper concentration in aqueous phase", "setting": "[6]; Port 10, Day 27", "result": 0.0, "unit": "mg/L"}, {"measurement": "remediation of As in ASV", "setting": "[7]", "result": "effective remediation"}, {"measurement": "Arsenic concentration in aqueous phase", "setting": "[7]; Port 1, Day 5", "result": 25.8, "unit": "mg/L"}, {"measurement": "Arsenic concentration in aqueous phase", "setting": "[7]; Port 1, Day 8", "result": 10.9, "unit": "mg/L"}, {"measurement": "Arsenic concentration in aqueous phase", "setting": "[7]; Port 1, Day 13", "result": 6.8, "unit": "mg/L"}, {"measurement": "Arsenic concentration in aqueous phase", "setting": "[7]; Port 1, Day 16", "result": 3.6, "unit": "mg/L"}, {"measurement": "Arsenic concentration in aqueous phase", "setting": "[7]; Port 1, Day 20", "result": 3.3, "unit": "mg/L"}, {"measurement": "Arsenic concentration in aqueous phase", "setting": "[7]; Port 1, Day 22", "result": 1.1, "unit": "mg/L"}, {"measurement": "Arsenic concentration in aqueous phase", "setting": "[7]; Port 1, Day 27", "result": 0.6, "unit": "mg/L"}, {"measurement": "Arsenic concentration in aqueous phase", "setting": "[7]; Port 5, Day 5", "result": 23.1, "unit": "mg/L"}, {"measurement": "Arsenic concentration in aqueous phase", "setting": "[7]; Port 5, Day 8", "result": 9.8, "unit": "mg/L"}, {"measurement": "Arsenic concentration in aqueous phase", "setting": "[7]; Port 5, Day 13", "result": 6.8, "unit": "mg/L"}, {"measurement": "Arsenic concentration in aqueous phase", "setting": "[7]; Port 5, Day 16", "result": 3.5, "unit": "mg/L"}, {"measurement": "Arsenic concentration in aqueous phase", "setting": "[7]; Port 5, Day 20", "result": 3.0, "unit": "mg/L"}, {"measurement": "Arsenic concentration in aqueous phase", "setting": "[7]; Port 5, Day 22", "result": 0.9, "unit": "mg/L"}, {"measurement": "Arsenic concentration in aqueous phase", "setting": "[7]; Port 5, Day 27", "result": 0.5, "unit": "mg/L"}, {"measurement": "Arsenic concentration in aqueous phase", "setting": "[7]; Port 10, Day 5", "result": 23.9, "unit": "mg/L"}, {"measurement": "Arsenic concentration in aqueous phase", "setting": "[7]; Port 10, Day 8", "result": 7.7, "unit": "mg/L"}, {"measurement": "Arsenic concentration in aqueous phase", "setting": "[7]; Port 10, Day 13", "result": 5.4, "unit": "mg/L"}, {"measurement": "Arsenic concentration in aqueous phase", "setting": "[7]; Port 10, Day 16", "result": 2.8, "unit": "mg/L"}, {"measurement": "Arsenic concentration in aqueous phase", "setting": "[7]; Port 10, Day 20", "result": 2.9, "unit": "mg/L"}, {"measurement": "Arsenic concentration in aqueous phase", "setting": "[7]; Port 10, Day 22", "result": 0.8, "unit": "mg/L"}, {"measurement": "Arsenic concentration in aqueous phase", "setting": "[7]; Port 10, Day 27", "result": 0.5, "unit": "mg/L"}]}, {"substance": "sorbitol tricysteinate", "values": [{"measurement": "remediation of chromium in combined solution", "setting": "[1]", "result": "remediated"}, {"measurement": "remediation of copper in combined solution", "setting": "[3]", "result": "remediated"}, {"measurement": "remediation of arsenic in combined solution", "setting": "[5]", "result": "remediated"}]}]}
